Experiments:
[1] = Stability of dry DM1-NO under ambient conditions (Griess assay); assay type: physicochemical; details: powder form, 2 weeks' storage at room temperature
Source text: FIGS. 1A and 1B are schemes illustrating how DM1-NO encapsulated PLGA-b-PEG nanoparticles (DM1-NO-NPs) can accumulate in tumors through the EPR effect. In the presence of radiation and/or reduced pH in endosomes/lysosomes, the S—N bond was broken, releasing DM1 and NO. DM1 inhibits microtubule assembly, arresting cells at the more radiosensitive G2/M phase. Meanwhile, NO can react with ROS to form radicals such as peroxynitrites, causing DNA and lipid damages. The combined effects enhance the efficacy of RT. […] Quantification was based on Greiss assay. PBS, cell culture medium (RPBI-1640), DM1, and DM1-NPs were tested as controls. FIG. 1D is a histogram showing the results of DLS analysis of DM1-NO-NPs in water. FIG. 1E is a plot showing the zeta potential of DM1-NO-NPs in water. FIG. 1F is a bar graph illustrating the stability of DM1-NO under ambient conditions. After synthesis, dry product of DM1-NO was kept at room temperature and the total amount of remaining NO was quantified using Griess assay on Day 0, 7, 14, and 21. FIG. 1G is plot illustrating the stability of DM1-NO in solutions. DM1-NO (20.09 μmol) was dissolved in PBS of different pH (5.5, 6.5, and 7.4). Time-dependent NO release was measured on a Sievers NOA 280i system, which assesses NO based on gas phase chemiluminescent reaction between NO and ozone. […]

[2] = tested on: H1299 cells; test: MTT cell viability assay, 72 h, in the presence of RT; assay type: cell-based, human; details: Homo sapiens, NCI-H1299, with RT
Method: FIGS. 7A-7E are plots showing the results of a cell cycle analysis, based on PI staining and assessed by flow cytometry. H1299 cells were incubated with PBS (7A), DM1 (7B), DM1-NO (7C), DM1-NPs (7D), or DM1-NO-NPs (20 nM, DM1 concentration) (7E) before analysis. […] FIG. 7G is a bar graphs showing Percentage of tubulin inhibition. Tubulin polymer was collected by centrifugation (35000×g for 1 h at 30° C.) and the amount of tubulin protein sediment was quantified by measuring protein concentration. ***, P<0.001. FIG. 7H is a line graph showing cell viability, tested with H1299 cells using 72-h MTT in the presence of RT. DM1, DM1-NO, and DM1-NO-NPs were studied.
The viability of the H1299 cells after different treatments was measured by (4,5-dimethythiazon-2-yl)-2,5-diphenyl tetrazolium bromide (MTT) assay using an Infinite M200 microplate reader (BioTek's Synergy™ Mx, USA). Around 3×10^3 cells per well were seeded into a 96-well plate and cultured overnight until the cells fully adhered to the bottom of the plate. The cells were treated with different treatment groups, including free drugs (DM1 and DM1-NO), and drug loaded nanoparticles (DM1-NPs and DM1-NO-NPs) for 72 h. […] The plate was gently shake for 5 min (instrument setup) to dissolve the formazan crystals, and the absorbance at 570 nm was recorded by a microplate reader. […]

## COc1cc2cc(c1Cl)N(C)C(=O)C[C@@H](OC(=O)[C@H](C)N(C)C(=O)CCSN=O)[C@]1(C)OC1[C@H](C)[C@@H]1C[C@@](O)(NC(=O)O1)[C@H](OC)/C=C\C=C(/C)C2 (some centres unmarked) [DM1-NO]
[1]
  compound degraded: less than 10%
[2]
  IC50: 14.9 nM
